# Columns and labels:
# [1] = DSC / modulated DSC thermal events (Tg, Low T1, Low T2, recrystallization, melt); type: physicochemical
# Protocol: For comparative purposes, a 100% spray-dried zolmitriptan powder was prepared and analyzed via XRPD and DSC to allow for a comparison to the formulations from Example 2 that were placed on stability and to facilitate an interpretation of the resultant thermal data. Initially, a lot of amorphous 100% zolmitriptan was produced via a Buchi 290 Spray-Drying System (spray drying parameters: solids concentration=2 g/L, inlet temperature=90° C., outlet temperature=45° C., drying gas flowrate=20 kg/hr, atomization gas flowrate=10 g/min, aqueous flowrate=4 ml/Min, organic phase flowrate=6 ml/min, spray dryer pressure=−50 mbar) and analyzed via modulated DSC (TA Instruments DSC Q2000 Tzero System, MDSC Parameters: hermetically sealed double lid pan configuration, equilibrate at 0° C. for 5 minutes, ramp up to maximum of 160° C. at 2.0° C./min, modulate+/−1.00° C. every 60 seconds) to determine its glass transition temperature.
# [2] = s.c.; cited from earlier work
structure (smiles),measurement,setting,value
"CN(C)CCc1c[nH]c2ccc(C[C@H]3COC(=O)N3)cc12 [Raw material, Zolmitriptan]",Tm (° C.),"[1]; 100% zolmitriptan study, t = 0",136.0 °C
same,ΔH,"[1]; 100% zolmitriptan study, t = 0",135.3 J/g
same,Tm (° C.),"[1]; 100% zolmitriptan study, t = 0, listed as Zolmitriptan raw material",approximately 136 °C
CN(C)CCc1c[nH]c2ccc(C[C@H]3COC(=O)N3)cc12 [Zolmitriptan],reported half-lives,[2],~2 h
"CN(C)CCc1c[nH]c2ccc(C[C@H]3COC(=O)N3)cc12 [pure amorphous zolmitriptan, Zolmitriptan]",glass transition temperature (Tg),"[1]; modulated DSC, amorphous 100% zolmitriptan, Buchi 290",approximately 33 °C
CNS(=O)(=O)Cc1ccc2[nH]cc(CCN(C)C)c2c1 [sumatriptan],reported half-lives,[2],~2 h
